IC50 data for 21 compounds are collected here from US11208400B2, “Substituted 6-(1H-pyrazol-1-yl)pyrimidin-4-amine derivatives and uses thereof” (Bayer Aktiengesellschaft, priority 2016, dated 2021).

Molecules are shown by their SMILES.

The test deals with T1, human Npt2a (Homo sapiens, UniProt Q06495).
T1 construct: expressed in transfected cells
T1 sequence (Q06495 1-639): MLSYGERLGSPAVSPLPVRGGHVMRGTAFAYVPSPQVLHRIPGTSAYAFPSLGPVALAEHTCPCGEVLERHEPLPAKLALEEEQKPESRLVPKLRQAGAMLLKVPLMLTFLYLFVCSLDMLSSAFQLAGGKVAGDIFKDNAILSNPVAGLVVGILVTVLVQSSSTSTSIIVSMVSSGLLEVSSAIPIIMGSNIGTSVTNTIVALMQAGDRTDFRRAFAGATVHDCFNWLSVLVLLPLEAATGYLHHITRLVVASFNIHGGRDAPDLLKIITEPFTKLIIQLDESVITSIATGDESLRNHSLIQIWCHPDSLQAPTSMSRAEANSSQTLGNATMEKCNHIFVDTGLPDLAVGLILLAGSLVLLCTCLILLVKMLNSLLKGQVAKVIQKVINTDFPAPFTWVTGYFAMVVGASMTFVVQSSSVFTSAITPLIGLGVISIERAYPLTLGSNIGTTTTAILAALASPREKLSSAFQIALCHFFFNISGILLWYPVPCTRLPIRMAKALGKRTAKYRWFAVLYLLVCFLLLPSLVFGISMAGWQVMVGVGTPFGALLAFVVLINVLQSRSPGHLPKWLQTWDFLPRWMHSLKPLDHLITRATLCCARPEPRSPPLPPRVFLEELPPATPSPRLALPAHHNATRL
As to the kind of experiment: Npt2a activity cell based assay, membrane potential dye, CHO T-REx hNpt2a cells. Conditions: doxycycline-induced, depolarization by sodium phosphate influx, average or median values if tested more than once. Put shortly:
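Cells were doxycycline-induced CHO T-REx hNpt2a, dye-loaded and pretreated 5 min at RT with 1 nM–50 μM compound in Na-free pH 7.4 buffer. IC50 was fit to the post/pre-trigger fluorescence ratio.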
For the compound `Cc1cc(C(F)F)n(-c2cc(Nc3nn(C)c(-c4ccc(F)cc4)c3Cl)ncn2)n1` [Example 346, N-[4-chloro-5-(4-fluorophenyl)-1-methyl-1H-pyrazol-3-yl]-6-[5-(difluoromethyl)-3-methyl-1H-pyrazol-1-yl]pyrimidin-4-amine], inhibition was half-maximal at 4 nM (IC50). Regarding `Cc1nn(-c2cc(Nc3c(C)c(-c4ccc(Cl)cc4)nn3CC3CC3)ncn2)c(C)c1C(C)(C)O` [Example 347, 2-[1-(6-{[3-(4-chlorophenyl)-1-(cyclopropylmethyl)-4-methyl-1H-pyrazol-5-yl]amino}pyrimidin-4-yl)-3,5-dimethyl-1H-pyrazol-4-yl]propan-2-ol], inhibition was half-maximal at 23 nM (IC50).

In the case of `Cc1nn(-c2cc(Nc3nn(C)c(-c4ccc(F)cc4)c3C)ncn2)c(C)c1C#N` [Example 348, 1-(6-{[5-(4-fluorophenyl)-1,4-dimethyl-1H-pyrazol-3-yl]amino}pyrimidin-4-yl)-3,5-dimethyl-1H-pyrazole-4-carbonitrile], the IC50 came out at 15 nM.

`CCc1c(-c2ccc(F)cc2)nn(CC2CC2)c1Nc1cc(-n2nc(C)c(C#N)c2C)ncn1` [Example 349, 1-(6-{[1-(cyclopropylmethyl)-4-ethyl-3-(4-fluorophenyl)-1H-pyrazol-5-yl]amino}pyrimidin-4-yl)-3,5-dimethyl-1H-pyrazole-4-carbonitrile] yielded an IC50 of 49 nM.

`Cc1cc(C)n(-c2cc(Nc3c(C)c(-c4ccncc4)nn3CC3CC3)ncn2)n1` [Example 350, N-[1-(cyclopropylmethyl)-4-methyl-3-(pyridin-4-yl)-1H-pyrazol-5-yl]-6-(3,5-dimethyl-1H-pyrazol-1-yl)pyrimidin-4-amine] came in with an IC50 of 1300 nM.

Compound `Cc1nn(-c2cc(Nc3c(C)c(-c4ccncc4)nn3CC3CC3)ncn2)c(C)c1Cl` [Example 351, 6-(4-chloro-3,5-dimethyl-1H-pyrazol-1-yl)-N-[1-(cyclopropylmethyl)-4-methyl-3-(pyridin-4-yl)-1H-pyrazol-5-yl]pyrimidin-4-amine] displayed an IC50 of 65 nM. In the case of `Cc1nn(-c2cc(Nc3c(C)c(-c4ccc(C#N)cc4)nn3CC3CC3)ncn2)c(C)c1C#N` [Example 352, 1-(6-{[3-(4-cyanophenyl)-1-(cyclopropylmethyl)-4-methyl-1H-pyrazol-5-yl]amino}pyrimidin-4-yl)-3,5-dimethyl-1H-pyrazole-4-carbonitrile], half-maximal inhibition (IC50) was put at 25 nM. In turn, `CCOC(=O)c1c(C)nn(-c2cc(Nc3nn(C)c(-c4ccc(Cl)cc4)c3C)ncn2)c1C` [Example 353, ethyl 1-(6-{[5-(4-chlorophenyl)-1,4-dimethyl-1H-pyrazol-3-yl]amino}pyrimidin-4-yl)-3,5-dimethyl-1H-pyrazole-4-carboxylate] displayed an IC50 of 5 nM. For the compound `Cc1cc(C)n(-c2cc(Nc3c(C)c(-c4ccc(Cl)cc4)nn3C)ncn2)n1` [Example 354, N-[3-(4-chlorophenyl)-1,4-dimethyl-1H-pyrazol-5-yl]-6-(3,5-dimethyl-1H-pyrazol-1-yl)pyrimidin-4-amine], the IC50 worked out at 135 nM. Compound `Cc1cc(C)n(-c2cc(Nc3nn(C)c(-c4ccc(Cl)cc4)c3C)ncn2)n1` [Example 355, N-[5-(4-chlorophenyl)-1,4-dimethyl-1H-pyrazol-3-yl]-6-(3,5-dimethyl-1H-pyrazol-1-yl)pyrimidin-4-amine] gave an IC50 of 20 nM. Next, `CCOC(=O)c1c(C)nn(-c2cc(Nc3nn(C)c(-c4ccc(F)cc4)c3Cl)ncn2)c1C` [Example 356, ethyl 1-(6-{[4-chloro-5-(4-fluorophenyl)-1-methyl-1H-pyrazol-3-yl]amino}pyrimidin-4-yl)-3,5-dimethyl-1H-pyrazole-4-carboxylate]: 2 nM; `Cc1nn(-c2cc(Nc3nn(C)c(-c4ccc(F)cc4)c3Cl)ncn2)c(C)c1C1(O)CC1` [Example 357, 1-[1-(6-{[4-chloro-5-(4-fluorophenyl)-1-methyl-1H-pyrazol-3-yl]amino}pyrimidin-4-yl)-3,5-dimethyl-1H-pyrazol-4-yl]cyclopropanol]: 32 nM. As to `CCOC(=O)c1c(C)nn(-c2cc(Nc3c(C)c(-c4ccc(OC(F)(F)F)cc4)nn3C)ncn2)c1C` [Example 361, ethyl 1-[6-({1,4-dimethyl-3-[4-(trifluoromethoxy)phenyl]-1H-pyrazol-5-yl}amino)pyrimidin-4-yl]-3,5-dimethyl-1H-pyrazole-4-carboxylate], half-maximal inhibition (IC50) was put at 31 nM. The IC50 values of the last two compounds are within 1.5-fold of each other. Consider `CCOC(=O)c1c(C)nn(-c2cc(Nc3c(C)c(-c4ccc(C(F)(F)F)cc4)nn3C)ncn2)c1C` [Example 362, ethyl 1-[6-({1,4-dimethyl-3-[4-(trifluoromethyl)phenyl]-1H-pyrazol-5-yl}amino)pyrimidin-4-yl]-3,5-dimethyl-1H-pyrazole-4-carboxylate], for which the IC50 was 220 nM. With `CCOC(=O)c1c(C)nn(-c2cc(Nc3c(C)c(-c4ccc(F)cc4F)nn3C)ncn2)c1C` [Example 363, ethyl 1-(6-{[3-(2,4-difluorophenyl)-1,4-dimethyl-1H-pyrazol-5-yl]amino}pyrimidin-4-yl)-3,5-dimethyl-1H-pyrazole-4-carboxylate], half-maximal inhibition (IC50) was put at 150 nM. Take `CCOC(=O)c1c(C)nn(-c2cc(Nc3c(C)c(-c4ccc(F)cc4F)nn3CC3CC3)ncn2)c1C` [Example 364, ethyl 1-(6-{[1-(cyclopropylmethyl)-3-(2,4-difluorophenyl)-4-methyl-1H-pyrazol-5-yl]amino}pyrimidin-4-yl)-3,5-dimethyl-1H-pyrazole-4-carboxylate]: the midpoint of inhibition, the IC50, lay at 5 nM. Compared with the last compound, the IC50 is about 30-fold lower. Regarding `Cc1nn(-c2cc(Nc3c(C)c(-c4ccc(C#N)cc4)nn3CC3CC3)ncn2)c2c1C(=O)CC2` [Example 365, 4-[1-(cyclopropylmethyl)-4-methyl-5-{[6-(3-methyl-4-oxo-5,6-dihydrocyclopenta[c]pyrazol-1(4H)-yl)pyrimidin-4-yl]amino}-1H-pyrazol-3-yl]benzonitrile], the IC50 was determined as 61 nM. The compound `Cc1nn(-c2ccc(C#N)cc2)c(C)c1Nc1cc(-n2nc(C)c(C(C)(C)O)c2C)ncn1` [Example 366, 4-[4-({6-[4-(2-hydroxypropan-2-yl)-3,5-dimethyl-1H-pyrazol-1-yl]pyrimidin-4-yl}amino)-3,5-dimethyl-1H-pyrazol-1-yl]benzonitrile] yielded an IC50 of 150 nM. Compound `CCOC(=O)c1c(C)nn(-c2cc(Nc3c(C)c(-c4ccc(Cl)cc4)nn3C)ncn2)c1C` [Example 367, ethyl 1-(6-{[3-(4-chlorophenyl)-1,4-dimethyl-1H-pyrazol-5-yl]amino}pyrimidin-4-yl)-3,5-dimethyl-1H-pyrazole-4-carboxylate] displayed an IC50 of 40 nM.

In the case of `Cc1nn(-c2cc(Nc3c(C)c(-c4ccc(F)cc4F)nn3CC3CC3)ncn2)c(C)c1C(C)(C)O` [Example 368, 2-[1-(6-{[1-(cyclopropylmethyl)-3-(2,4-difluorophenyl)-4-methyl-1H-pyrazol-5-yl]amino}pyrimidin-4-yl)-3,5-dimethyl-1H-pyrazol-4-yl]propan-2-ol], the IC50 is 7 nM. The compound `Cc1nnc(-c2c(C)nn(-c3cc(Nc4c(C)c(-c5ccc(F)cc5)nn4CC4CC4)ncn3)c2C)o1` [Example 372, N-[1-(cyclopropylmethyl)-3-(4-fluorophenyl)-4-methyl-1H-pyrazol-5-yl]-6-[3,5-dimethyl-4-(5-methyl-1,3,4-oxadiazol-2-yl)-1H-pyrazol-1-yl]pyrimidin-4-amine] had an IC50 of 7 nM.

The term IC50 denotes the concentration at which inhibition is half-maximal. A lower IC50 goes with greater potency.
